In patent US12421271B2, “Solid forms of (2S,3S,4S,5R,6S)-3,4,5-trihydroxy-6-(((4AR, 10AR)-7-hydroxy-1-propyl-1,2,3,4,4A,5,10,10A-octahydrobenzo[g]quinolin-6-yl)oxy)tetrahydro-2H-pyran-2-carboxylic acid” (H. Lundbeck A/S, priority 2019, dated 2025):
Where a name gives a salt, the structure may show the parent alone.

Tests used:
[1] = PK experiments in Wistar rats, plasma compound (I) after oral dosing of prodrugs; format: in vivo, rat; conditions: FIG. 1, doses equal to 287 μg/kg of compound (I)
Procedure: Plasma was placed on water-ice following collection. Final storage at approximately −70° C.
Mobile phase B: Acetonitrile. […] Flow rate 0.5 mL/min.
The rats had unrestricted access to the diet.
Mobile phase B: Acetonitrile+0.2% formic acid. […] Flow rate 0.3 mL/min.
Dosing and blood sampling for compound (Ic): Han Wistar rats were supplied by Envigo, UK. […] The rats received a standard laboratory diet Teklad 2014C. The rats had unrestricted access to the diet.

[2] = Grinding, pressure and milling followed by XRPD; format: physicochemical; conditions: for Crystallinity by XRPD after pressure: DH1: 300 PSI for 5 minutes, K^+ salt: IR-press for 5 minutes; for Crystallinity by XRPD after grinding: grinded by hand with mortar and pestle; for Crystallinity by XRPD after subsequent storage of treated sample: 95% RH for 1 week
Procedure: A sample of the heptahydrate was grinded by hand using mortar and pestle for 2 minutes, and subsequently analyzed by XRPD. […] The samples were analysed by XRPD after the treatment. Subsequently, the samples were placed at 95% RH for 1 week and reanalysed by XRPD.

[3] = Stress stability, open dishes in the dark, LC-UV impurities; format: physicochemical; conditions: open dish, % area by LC-UV
Procedure: For the stress stability studies, the substances were stored in open dishes in the dark at 40° C./75% RH, 60° C. and 60° C./80% RH.
(§1) The amount of impurities was determined as % area of the peak of impurity relative to the area of the main peak.
The stress stability testing was performed as described above, and the amount of degradation products were determined based on the LC-UV method described above.

[4] = Stability studies of solid forms in sealed polyethylene bags (appearance, LC-UV, Karl Fischer water, XRPD); format: physicochemical; conditions: for Overall outcome of stability testing, in words: 25° C./60% RH and 40° C./75% RH; for Physical form: XRPD
Procedure: The substances were packed individually in sealed polyethylene bags, with a carton box as a secondary packaging material. During stability the different batches were tested for visual appearance, assay (anhydrous i.e. calculated as water free compound), impurities and water content. In addition, XRPD was been performed as described in Example 3 at selected time points.
LC-UV was run on Agilent HPLC consisting of Agilent 1200 HPLC or equivalent including autosampler and DAD detector (operating at 278 nm).
LC-conditions: The column was Synergi Polar-RP 4 μm; 4.6×150 mm operating at 40° C. with 1.0 ml/min of a binary gradient consisting of water/acetonitrile+[…] (90:10) (A) and water/acetonitrile+[…] (35:65) (B).
as §1
The water content was determined by coulometric Karl Fischer titration according to the European Pharmacopoeia, chapter 2.5.32 (Metrohm 874 Oven Sample Processor and Metrohm 851 KF Coulometer). The water content was evaporated by heating samples to 150° C. and the water vapor was transferred by nitrogen to the titration chamber where it was titrated to endpoint using Hydranal Coulomat AG Oven (article number 34739) titration reagent.

[5] = Dynamic vapor sorption (DVS); format: physicochemical; conditions: for Hygroscopicity / behaviour towards humidity (DVS), in words: DH1: 5-80% RH, HH: 20-95% RH, K^+ salt: two cycles
Procedure: Dynamic vapor sorption (DVS) was further used to evaluate selected solid forms. Hygroscopicity and dehydration behavior can be investigated by DVS analysis. DVS experiments were performed using a DVS Advantage 01 instrument from Surface Measurement Systems. Samples of 4-10 mg of the solid forms were used for the analysis. […]

rat locomotor activity = assay: Rat locomotor activity (hyperactivity) assay, open field, with PK/PD; format: in vivo
Procedure: Mass spectrometer (UPCLC-MS/MS) Waters Acquity I-Class-Waters Xevo TQ-S. Analytical column Acquity HSS T3 C18 50×2.1 mm, 1.8 μm. Mobile phase A: 10 mM NH4—Formate 0.2% formic acid:Acetonitril (95:5). Mobile phase B: 10 mM NH4—Formate 0.2% formic acid:Acetonitril (5:95). Gradient run from 95/5% to 5/95% in 2.40 minutes. Flow rate 0.3 mL/min. MRM detection of test items and the added analytical standards.
Animals for the study were as described in Example 10. Additionally, rats were administered a single dose of apomorphine subcutaneously.
In total, 206 male CD rats (Charles River, Germany) weighing 200-250 grams (165-190 grams upon arrival) were used in the study. Animals were housed at a standard temperature (22±1° C.) and in a light-controlled environment (lights on from 7 am to […]) with ad libitum access to food and water. The experiment described below was performed in accordance with the standard operating procedures of Charles River Discovery Research Services Finland Ltd. and in accordance with the national Animal Experiment Board of Finland (Eläinkoelautakunta, ELLA) authority on animal testing.
The test device is a square Plexiglass-arena (measuring 40×40×40 cm), in which the movement paths of the rats are recorded by an activity monitor (Med. Associates Inc.). Before the test period is initiated, rats are habituated to their test cage for 60 minutes. Upon completion of habituation, animals were treated with either compound or vehicle and placed back into the open field apparatus. The main test parameter measured is ambulatory distance (recorded in 5-minute segments). Overall time of measurement after receiving initial treatment was 360 minutes. Total follow up period in the study was 420 min, including 60 min of habituation.

| Structure (SMILES) | Crystallinity by XRPD after pressure [2] | Crystallinity by XRPD after grinding [2] | Water content, % ([4]; 25° C./60% RH, 6 months) [%] | Physical form ([4]; 25° C./60% RH, 6 months) | Water content, % ([4]; 25° C./60% RH, Initial) [%] | Physical form ([4]; 25° C./60% RH, Initial) | Water content, % ([4]; 40° C./75% RH, 6 months) [%] | Physical form ([4]; 40° C./75% RH, 6 months) | Water content, % ([4]; 40° C./75% RH, Initial) [%] | Physical form ([4]; 40° C./75% RH, Initial) | Hygroscopicity / behaviour towards humidity (DVS), in words [5] | Water content, % ([4]; 25° C./60% RH, 3 months) [%] | Water content, % ([4]; 25° C./60% RH, 9 months) [%] | Physical form ([4]; 25° C./60% RH, 9 months) | Water content, % ([4]; 25° C./60% RH, 18 months) [%] | Water content, % ([4]; 40° C./75% RH, 3 months) [%] | also measured |
| --- | --- | --- | --- | --- | --- | --- | --- | --- | --- | --- | --- | --- | --- | --- | --- | --- | --- |
| CCCN1CCC[C@@H]2Cc3c(ccc4c3OCO4)C[C@H]21 [Compound (Ib)] | – | – | – | – | – | – | – | – | – | – | – | – | – | – | – | – | Plasma profile of compound (I) after oral dosing, in words [1]: early and high peak concentrations |
| CCCN1CCC[C@@H]2Cc3c(ccc(O)c3O[C@@H]3O[C@H](C(=O)O)[C@@H](O)[C@H](O)[C@H]3O)C[C@H]21 [DH1, (2S,3S,4S,5R,6S)-3,4,5-trihydroxy-6-(((4aR,10aR)-7-hydroxy-1-propyl-1,2,3,4,4a,5,10,10a-octahydrobenzo[g]quinolin-6-yl)oxy)tetrahydro-2H-pyran-2-carboxylic acid] | did not show sign of decreased crystallinity | did not show sign of decreased crystallinity | 7.6 | DH1 | 7.6 | DH1 | 7.5 | DH1 | 7.6 | DH1 | non-hygroscopic | – | – | – | – | – | Crystallinity by XRPD after milling ([2]; milled vs un-milled material): no apparent change in crystallinity; Total sum of impurities after 6 months storage ([3]; 40° C./75% RH, listed as Dihydrate): 0.05%; Total sum of impurities after 6 months storage ([3]; 60° C., listed as Dihydrate): 1.0%; Total sum of impurities after 6 months storage ([3]; 60° C./80% RH, listed as Dihydrate): 0.05%; Overall outcome of stability testing, in words ([4]; listed as dihydrate): no changes in appearance, water content or physical form (XRPD); Water content, % ([4]; 25° C./60% RH, 4 months): 7.6%; Physical form ([4]; 25° C./60% RH, 4 months): DH1; Water content, % ([4]; 25° C./60% RH, 10 months): 7.4%; Water content, % ([4]; 40° C./75% RH, 4 months): 7.4%; Physical form ([4]; 40° C./75% RH, 4 months): DH1; Water absorbed or desorbed (DVS) ([5]; humidity range 5-90% RH): Less than 0.1% |
| CCCN1CCC[C@@H]2Cc3c(ccc(O)c3O[C@@H]3O[C@H](C(=O)O)[C@@H](O)[C@H](O)[C@H]3O)C[C@H]21 [HH, (2S,3S,4S,5R,6S)-3,4,5-trihydroxy-6-(((4aR,10aR)-7-hydroxy-1-propyl-1,2,3,4,4a,5,10,10a-octahydrobenzo[g]quinolin-6-yl)oxy)tetrahydro-2H-pyran-2-carboxylic acid] | – | – | 20.0 | – | 21.6 | – | 7.6 | – | 21.6 | – | absorbs and desorbs water at humidity between 20% RH and 95% RH without changing the crystal form | 22.3 | 21.6 | Form C | 20.9 | 7.6 | Crystallinity by XRPD after subsequent storage of treated sample ([2]; listed as heptahydrate): regained crystallinity after storage; Crystallinity by XRPD after grinding ([2]; listed as heptahydrate): reflections became a bit broader and an amorphous halo became visible; Total sum of impurities after 6 months storage ([3]; 40° C./75% RH, listed as Heptahydrate): <0.05%; Total sum of impurities after 6 months storage ([3]; 60° C., listed as Heptahydrate): 4.3%; Total sum of impurities after 6 months storage ([3]; 60° C./80% RH, listed as Heptahydrate): <0.05%; Overall outcome of stability testing, in words [4]: Changes in visual appearance, water content and physical form (XRPD) were seen; Water content, % ([4]; 25° C./60% RH, 12 months): 15.0%; Physical form ([4]; 40° C./75% RH, 3 months): DH1; Behaviour at low humidity (DVS), in words ([5]; humidity below 20%): changes into other less hydrated forms |
| CCCN1CCC[C@@H]2Cc3c(ccc(O)c3O[C@@H]3O[C@H](C(=O)O)[C@@H](O)[C@H](O)[C@H]3O)C[C@H]21 [K^+ salt, (2S,3S,4S,5R,6S)-3,4,5-trihydroxy-6-(((4aR,10aR)-7-hydroxy-1-propyl-1,2,3,4,4a,5,10,10a-octahydrobenzo[g]quinolin-6-yl)oxy)tetrahydro-2H-pyran-2-carboxylic acid] | some broadening of the XRPD reflections | severe broadening of the XRPD reflections | 0.17 | Alfa form | 0.11 | Alfa form | 0.25 | Alfa form | 0.11 | Alfa form | stable towards change in humidity | 0.22 | <0.10 | Alfa form | 0.23 | 0.38 | Crystallinity by XRPD after subsequent storage of treated sample [2]: regained crystallinity after storage at high humidity; Total sum of impurities after 6 months storage ([3]; 40° C./75% RH, listed as Potassium salt): 0.10%; Total sum of impurities after 6 months storage ([3]; 60° C., listed as Potassium salt): 0.10%; Total sum of impurities after 6 months storage ([3]; 60° C./80% RH, listed as Potassium salt): 1.0%; Overall outcome of stability testing, in words ([4]; listed as potassium salt): remained in the same physical form; Water content, % ([4]; 25° C./60% RH, 13 months): <0.10%; Physical form ([4]; 25° C./60% RH, 13 months): Alfa form; Physical form ([4]; 25° C./60% RH, 18 months): Alfa form; Weight change (DVS) ([5]; at 80% RH): up to 0.6%; Further weight change (DVS) ([5]; at 90% RH): 1% |
| CN1CCc2cccc3c2[C@H]1Cc1ccc(O)c(O)c1-3 [apomorphine, reference compound] | – | – | – | – | – | – | – | – | – | – | – | – | – | – | – | – | Relationship of behavioral effect and plasma concentration (rat locomotor activity; (Id) 100 μg/kg p.o. (FIG. 4), apomorphine 3 mg/kg s.c. (FIG. 5)): correlation between plasma concentrations of apomorphine and hyperactive behavior; Start of locomotor effect post-administration (rat locomotor activity; (Id) 10 to 300 μg/kg p.o., apomorphine 3 mg/kg s.c., pramipexole 0.3 mg/kg s.c., FIG. 2): immediate; Time post administration at which hyperactivity is gone (rat locomotor activity; apomorphine 3 mg/kg s.c., 150-minute time point): 1.5 h |
